Earlier results, collected in patent US8821944B1, “Polymorph compositions, methods of making, and uses thereof” (Edge Therapeutics, Inc., priority 2013, dated 2014).

How the values were obtained:
[1] = at +25° C. and +37° C.
[2] = at +25° C. and +37° C.; remark: listed apart in the source

Q: Which results are given for `COCCOC(=O)C1=C(C)NC(C)=C(C(=O)OC(C)C)C1c1cccc([N+](=O)[O-])c1` (centres unmarked) [Form II]?
A: solubility compared to Form I [1]: lower solubility; stability compared to Form I [2]: higher stability
